Laboratory results as given in a compilation of properties of binary mixtures (doi:10.1016/j.jtice.2024.105468).

Assay: xn = mol fraction of the nth substance listed
Settings: 100 kPa

COCCO + CCCC[n+]1ccn(C)c1.[Br-]
x2 = 0
Settings | viscosity [mPa·s]
298.15 K | 1.57
303.15 K | 1.5
308.15 K | 1.35
313.15 K | 1.23

CCCC[n+]1ccn(C)c1.[Br-] + COCCO
viscosity [mPa·s]
Settings | x1 = 0.1002 | x1 = 0.1999 | x1 = 0.3002 | x1 = 0.4 | x1 = 0.5 | x1 = 0.5999 | x1 = 0.7002 | x1 = 0.8 | x1 = 0.8975 | x1 = 1
298.15 K | 10 | 34 | 74.5 | 124 | 179 | 247 | – | 527 | 843 | 1451
303.15 K | 6.65 | 19.6 | 41.1 | 68.9 | – | 139 | 192 | 280 | 447 | 837
308.15 K | 5.03 | 13 | 26.9 | – | 63.6 | 86.3 | 114 | 162 | 256 | 506
313.15 K | 3.71 | 8.79 | 17.5 | – | – | 55.5 | – | 106 | 167 | 330
